Assay results as given in patent US20250302815A1, “PROTEIN TYROSINE PHOSPHATASE TARGETING LIGANDS” (CALICO LIFE SCIENCES LLC, priority 2021, published 2025).

What was measured:
[1] = molecular target: T1, PTPN2 (HiBIT-PTPN2 in 293T.109 cells) (Homo sapiens, UniProt P17706); assay: HiBiT Degradation 293T.109 PTPN2 (Nano-Glo HiBiT Lytic Assay); assay type: cell-based; details: 24.0 hours
T1 construct: expressed in transfected cells; host or cells: 293T.109 (293T WT from ATCC)
T1 sequence (P17706 1-415): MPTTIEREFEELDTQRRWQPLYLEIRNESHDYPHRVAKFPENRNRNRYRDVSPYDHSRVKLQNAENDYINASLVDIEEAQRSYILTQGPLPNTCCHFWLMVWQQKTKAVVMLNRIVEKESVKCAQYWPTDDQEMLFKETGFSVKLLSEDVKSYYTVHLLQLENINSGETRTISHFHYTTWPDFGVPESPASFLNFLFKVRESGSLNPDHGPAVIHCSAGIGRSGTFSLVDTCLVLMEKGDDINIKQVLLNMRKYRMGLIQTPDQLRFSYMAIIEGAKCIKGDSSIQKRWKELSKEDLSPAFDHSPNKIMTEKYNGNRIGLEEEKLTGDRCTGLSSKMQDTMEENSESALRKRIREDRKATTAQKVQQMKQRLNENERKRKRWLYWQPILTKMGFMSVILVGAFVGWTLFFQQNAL
Outline: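 Degradation read-out: lytic HiBiT luminescence after 24 h treatment (37 °C, 5% CO2) of 5000 293T cells per well expressing HiBiT-fused PTPN2 from an N-terminal tag. Dosing was 11 points, half-log steps down from 10 μM, in duplicate; vehicle-treated and no-reagent wells served as controls.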

[2] = molecular target: T2, PTPN2 (B16F10.4 cells) (Mus musculus, UniProt Q06180); assay: HiBiT Degradation B16F10.4 PTPN2; assay type: cell-based; details: 24.0 hours
T2 construct: HiBiT; host or cells: B16F10.4
T2 sequence (Q06180 1-406): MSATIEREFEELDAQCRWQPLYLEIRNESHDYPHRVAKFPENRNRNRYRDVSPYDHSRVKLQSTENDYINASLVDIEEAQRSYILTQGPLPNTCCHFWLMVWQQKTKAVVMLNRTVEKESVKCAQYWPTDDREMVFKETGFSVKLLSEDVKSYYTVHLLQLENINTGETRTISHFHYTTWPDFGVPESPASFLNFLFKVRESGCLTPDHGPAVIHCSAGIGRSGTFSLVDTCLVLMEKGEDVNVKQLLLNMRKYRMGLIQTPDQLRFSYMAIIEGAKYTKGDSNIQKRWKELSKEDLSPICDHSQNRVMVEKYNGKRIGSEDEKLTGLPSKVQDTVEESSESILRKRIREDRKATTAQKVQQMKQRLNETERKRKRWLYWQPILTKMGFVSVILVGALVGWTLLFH

Row | SMILES | DC50 [1] [nM] | DC50 [2] [nM]
1 | C[C@H]1CN(C(=O)Nc2cccc(CS(=O)(=O)N3CC[C@H](Nc4cccc(-c5sc(C(=O)O)c(OCC(=O)O)c5Cl)c4)CC3(C)C)c2)CCN1c1ccc2c(c1)n(C)c(=O)n2C1CCC(=O)NC1=O (stereo partly shown) [Example 210] | 50 to 200 | 50 to 200
2 | Cc1cn(C2CCC(=O)NC2=O)c2ccc(C3CCN(C(=O)Nc4cccc(CS(=O)(=O)N5CC[C@H](Nc6cccc(-c7sc(C(=O)O)c(OCC(=O)O)c7Cl)c6)CC5(C)C)c4)CC3)cc12 (stereo partly drawn) [Example 211, 3-(carboxymethoxy)-4-chloro-5-[3-[[(4S)-1-[[3-[[4-[1-(2,6-dioxo-3-piperidyl)-3-methyl-indol-5-yl]piperidine-1-carbonyl]amino]phenyl]methylsulfonyl]-2,2-dimethyl-4-piperidyl]amino]phenyl]thiophene-2-carboxylic acid] | 200 to 1000 | 200 to 1000
3 | Cn1c(=O)n(C2CCC(=O)NC2=O)c2ccc(C3CN(C(=O)Nc4cccc(CS(=O)(=O)N5CC[C@H](Nc6cccc(-c7sc(C(=O)O)c(OCC(=O)O)c7Cl)c6)CC5(C)C)c4)CCC3F)cc21 (stereo partly drawn) [Example 212, 3-(carboxymethoxy)-4-chloro-5-[3-[[(4S)-1-[[3-[[3-[1-(2,6-dioxo-3-piperidyl)-3-methyl-2-oxo-benzimidazol-5-yl]-4-fluoro-piperidine-1-carbonyl]amino]phenyl]methylsulfonyl]-2,2-dimethyl-4-piperidyl]amino]phenyl]thiophene-2-carboxylic acid] | 200 to 1000 | 50 to 200
4 | Cn1c(=O)n(C2CCC(=O)NC2=O)c2ccc([C@@H]3CN(C(=O)Nc4cccc(CS(=O)(=O)N5CC[C@H](Nc6cccc(-c7sc(C(=O)O)c(OCC(=O)O)c7Cl)c6)CC5(C)C)c4)CC[C@H]3F)cc21 (stereo partly drawn) [Example 213, 3-(carboxymethoxy)-4-chloro-5-[3-[[(4S)-1-[[3-[[(3R,4R)-3-[1-(2,6-dioxo-3-piperidyl)-3-methyl-2-oxo-benzimidazol-5-yl]-4-fluoro-piperidine-1-carbonyl]amino]phenyl]methylsulfonyl]-2,2-dimethyl-4-piperidyl]amino]phenyl]thiophene-2-carboxylic acid] | ≥ 1000 | 50 to 200
5 | Cn1c(=O)n(C2CCC(=O)NC2=O)c2ccc([C@H]3CN(C(=O)Nc4cccc(CS(=O)(=O)N5CC[C@H](Nc6cccc(-c7sc(C(=O)O)c(OCC(=O)O)c7Cl)c6)CC5(C)C)c4)CC[C@@H]3F)cc21 (stereo partly drawn) [Example 214, 3-(carboxymethoxy)-4-chloro-5-[3-[[(4S)-1-[[3-[[(3S,4S)-3-[1-(2,6-dioxo-3-piperidyl)-3-methyl-2-oxo-benzimidazol-5-yl]-4-fluoro-piperidine-1-carbonyl]amino]phenyl]methylsulfonyl]-2,2-dimethyl-4-piperidyl]amino]phenyl]thiophene-2-carboxylic acid] | 200 to 1000 | 50 to 200
6 | CC1(C)C[C@@H](Nc2cccc(-c3sc(C(=O)O)c(OCC(=O)O)c3Cl)c2)CCN1S(=O)(=O)Cc1cccc(NC(=O)NCCCc2cc3c4c(cccc4c2)N(C2CCC(=O)NC2=O)C3=O)c1 (stereo partly drawn) [Example 215, 3-(carboxymethoxy)-4-chloro-5-[3-[[(4S)-1-[[3-[3-[1-(2,6-dioxo-3-piperidyl)-2-oxo-benzo[cd]indol-4-yl]propylcarbamoylamino]phenyl]methylsulfonyl]-2,2-dimethyl-4-piperidyl]amino]phenyl]thiophene-2-carboxylic acid] | 50 to 200 | 200 to 1000
7 | CC1(C)C[C@@H](Nc2cccc(-c3sc(C(=O)O)c(OCC(=O)O)c3Cl)c2)CCN1S(=O)(=O)Cc1cccc(NC(=O)C2CCN(c3ccc4c5c(cccc35)N(C3CCC(=O)NC3=O)C4=O)CC2)c1 (stereo partly shown) [Example 216] | < 50 | 50 to 200
8 | CC1(C)C[C@@H](Nc2cccc(-c3sc(C(=O)O)c(OCC(=O)O)c3Cl)c2)CCN1S(=O)(=O)Cc1cccc(NC(=O)N2CCC(c3cnc4c(c3)c3ccccc3n4C3CCC(=O)NC3=O)CC2)c1 (stereo partly drawn) [Example 218, 3-(carboxymethoxy)-4-chloro-5-[3-[[(4S)-1-[[3-[[4-[9-(2,6-dioxo-3-piperidyl)pyrido[2,3-b]indol-3-yl]piperidine-1-carbonyl]amino]phenyl]methylsulfonyl]-2,2-dimethyl-4-piperidyl]amino]phenyl]thiophene-2-carboxylic acid] | 200 to 1000 | 200 to 1000
9 | CC1(C)C[C@@H](Nc2cccc(-c3sc(C(=O)O)c(OCC(=O)O)c3Cl)c2)CCN1S(=O)(=O)Cc1cccc(NC(=O)NCCC2CCN(c3ccc4c5c(cccc35)C(=O)N4C3CCC(=O)NC3=O)CC2)c1 (stereo partly drawn) [Example 219, 3-(carboxymethoxy)-4-chloro-5-(3-(((4S)-1-((3-(3-(2-(1-(1-(2,6-dioxopiperidin-3-yl)-2-oxo-1,2-dihydrobenzo[cd]indol-6-yl)piperidin-4-yl)ethyl)ureido)benzyl)sulfonyl)-2,2-dimethylpiperidin-4-yl)amino)phenyl)thiophene-2-carboxylic acid] | 50 to 200 | < 50
10 | CC1(C)C[C@@H](Nc2cccc(-c3sc(C(=O)O)c(OCC(=O)O)c3Cl)c2)CCN1S(=O)(=O)Cc1cccc(NC(=O)CCC(=O)NCc2ccc3c4c(cccc24)C(=O)N3C2CCC(=O)NC2=O)c1 (stereo partly drawn) [Example 220, 3-(carboxymethoxy)-4-chloro-5-(3-(((4S)-1-((3-(4-(((1-(2,6-dioxopiperidin-3-yl)-2-oxo-1,2-dihydrobenzo[cd]indol-6-yl)methyl)amino)-4-oxobutanamido)benzyl)sulfonyl)-2,2-dimethylpiperidin-4-yl)amino)phenyl)thiophene-2-carboxylic acid] | 50 to 200 | 50 to 200
11 | Cn1c(=O)n(C2CCC(=O)NC2=O)c2ccc(CN3CCN(C(=O)Nc4cccc(CS(=O)(=O)N5CC[C@H](Nc6cccc(-c7sc(C(=O)O)c(OCC(=O)O)c7Cl)c6)CC5(C)C)c4)CC3)cc21 (stereo partly drawn) [Example 221, 3-(carboxymethoxy)-4-chloro-5-[3-[[(4S)-1-[[3-[[4-[[1-(2,6-dioxo-3-piperidyl)-3-methyl-2-oxo-benzimidazol-5-yl]methyl]piperazine-1-carbonyl]amino]phenyl]methylsulfonyl]-2,2-dimethyl-4-piperidyl]amino]phenyl]thiophene-2-carboxylic acid] | 200 to 1000 | 200 to 1000
12 | Cn1c(=O)n(C2CCC(=O)NC2=O)c2ccc3c(c21)CCCN3C1CCN(C(=O)Nc2cccc(CS(=O)(=O)N3CC[C@H](Nc4cccc(-c5sc(C(=O)O)c(OCC(=O)O)c5Cl)c4)CC3(C)C)c2)CC1 (stereo partly drawn) [Example 222, 3-(carboxymethoxy)-4-chloro-5-[3-[[(4S)-1-[[3-[[4-[3-(2,6-dioxo-3-piperidyl)-1-methyl-2-oxo-8,9-dihydro-7H-imidazo[4,5-f]quinolin-6-yl]piperidine-1-carbonyl]amino]phenyl]methylsulfonyl]-2,2-dimethyl-4-piperidyl]amino]phenyl]thiophene-2-carboxylic acid] | 50 to 200 | 50 to 200
13 | CC1(C)C[C@@H](Nc2cccc(-c3sc(C(=O)O)c(OCC(=O)O)c3Cl)c2)CCN1S(=O)(=O)Cc1cccc(NC(=O)N2CCC[C@H](c3ccc4c5c(cccc35)N(C3CCC(=O)NC3=O)C4=O)CC2)c1 (stereo partly drawn) [Example 223, 3-(carboxymethoxy)-4-chloro-5-(3-(((4S)-1-((3-((4S)-4-(1-(2,6-dioxopiperidin-3-yl)-2-oxo-1,2-dihydrobenzo[cd]indol-5-yl)azepane-1-carboxamido)benzyl)sulfonyl)-2,2-dimethylpiperidin-4-yl)amino)phenyl)thiophene-2-carboxylic acid] | 200 to 1000 | 50 to 200
14 | CC1(C)C[C@@H](Nc2cccc(-c3sc(C(=O)O)c(OCC(=O)O)c3Cl)c2)CCN1S(=O)(=O)Cc1cccc(NC(=O)N2CCC[C@@H](c3ccc4c5c(cccc35)N(C3CCC(=O)NC3=O)C4=O)CC2)c1 (stereo partly drawn) [Example 224, 3-(carboxymethoxy)-4-chloro-5-(3-(((4S)-1-((3-((4R)-4-(1-(2,6-dioxopiperidin-3-yl)-2-oxo-1,2-dihydrobenzo[cd]indol-5-yl)azepane-1-carboxamido)benzyl)sulfonyl)-2,2-dimethylpiperidin-4-yl)amino)phenyl)thiophene-2-carboxylic acid] | 50 to 200 | 50 to 200
